{"source": "patent US10024862B2", "about": "“Recognition of cellular target binding by a bioactive agent using intracellular bioluminescence resonance energy transfer” (Promega Corporation, priority 2012, dated 2018)", "key": {"[1]": {"molecular_target": "11S-BRD4/114-Histone H3.3 complex (Homo sapiens, UniProt O60885)", "experiment": "Competitive displacement of iBET-NCT tracer from 11S-BRD4/Histone H3.3-114 complex, BRET (Example 22)", "format": "binding", "settings": "HEK293 cells, 2 uM iBET-NCT/PBI-4966 tracer, FIG. 28"}, "[2]": {"molecular_target": "T1, NanoLuc-HDAC6 (Homo sapiens, UniProt Q9UBN7)", "T1 construct": "expressed in transfected cells; host or cells: HEK293", "T1 sequence (Q9UBN7 with tags, fused parts or gaps)": "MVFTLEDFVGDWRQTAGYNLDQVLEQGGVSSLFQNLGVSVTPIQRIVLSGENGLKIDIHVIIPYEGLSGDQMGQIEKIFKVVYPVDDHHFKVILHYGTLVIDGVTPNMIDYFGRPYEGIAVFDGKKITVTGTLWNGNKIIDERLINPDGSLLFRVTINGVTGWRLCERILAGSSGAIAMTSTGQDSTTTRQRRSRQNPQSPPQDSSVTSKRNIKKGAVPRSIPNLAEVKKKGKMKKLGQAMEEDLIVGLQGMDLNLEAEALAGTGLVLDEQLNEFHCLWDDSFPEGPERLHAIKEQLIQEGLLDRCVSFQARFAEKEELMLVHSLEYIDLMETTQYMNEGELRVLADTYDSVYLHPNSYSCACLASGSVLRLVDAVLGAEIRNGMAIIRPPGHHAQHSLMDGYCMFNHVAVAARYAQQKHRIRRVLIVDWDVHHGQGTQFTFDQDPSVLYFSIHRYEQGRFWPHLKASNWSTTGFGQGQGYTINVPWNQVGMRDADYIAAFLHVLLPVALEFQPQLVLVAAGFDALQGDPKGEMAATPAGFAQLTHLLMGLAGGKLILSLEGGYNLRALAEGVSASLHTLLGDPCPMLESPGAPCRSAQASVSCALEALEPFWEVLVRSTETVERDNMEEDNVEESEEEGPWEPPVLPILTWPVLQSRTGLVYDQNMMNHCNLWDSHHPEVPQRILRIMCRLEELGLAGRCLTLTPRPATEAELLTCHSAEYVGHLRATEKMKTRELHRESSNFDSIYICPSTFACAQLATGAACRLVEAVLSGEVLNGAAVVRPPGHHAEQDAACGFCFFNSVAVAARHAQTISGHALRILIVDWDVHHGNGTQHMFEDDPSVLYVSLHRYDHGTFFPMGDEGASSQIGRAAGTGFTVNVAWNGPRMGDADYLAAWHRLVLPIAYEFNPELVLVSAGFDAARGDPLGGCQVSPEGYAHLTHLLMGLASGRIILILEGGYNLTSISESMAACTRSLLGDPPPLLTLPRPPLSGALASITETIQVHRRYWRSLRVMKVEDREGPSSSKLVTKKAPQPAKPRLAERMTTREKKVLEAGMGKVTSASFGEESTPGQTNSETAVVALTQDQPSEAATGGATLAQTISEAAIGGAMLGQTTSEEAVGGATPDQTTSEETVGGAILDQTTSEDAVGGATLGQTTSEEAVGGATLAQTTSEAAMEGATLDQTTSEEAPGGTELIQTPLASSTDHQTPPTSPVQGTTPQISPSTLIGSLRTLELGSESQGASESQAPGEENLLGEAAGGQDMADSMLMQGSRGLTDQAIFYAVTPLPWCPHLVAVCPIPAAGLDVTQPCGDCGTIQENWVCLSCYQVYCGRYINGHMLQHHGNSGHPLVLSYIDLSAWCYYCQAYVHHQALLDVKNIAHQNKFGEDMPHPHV", "experiment": "Tracer affinity BRET, NanoLuc-HDAC6 (Example 13)", "format": "binding", "settings": "HEK293 cells, serially-diluted tracer with or without 4 uM BIRB796, FIGS. 14 and 15", "protocol": "(§1) Cells were incubated at 37° C. for two hours."}, "[3]": {"test_system": "NanoLuc fusions to various members of the MAPK pathway", "experiment": "Tracer selectivity across p38/MAPK pathway NanoLuc fusions, BRET response ratio (Example 12)", "format": "binding", "settings": "HEK293 cells, 2 uM tracer with or without 4 uM BIRB796, FIG. 13", "protocol": "(§2) Cells were incubated at 37° C. for two hours. […] To determine response ratios, the BRET values with tracer alone were divided by the BRET values with tracer+unmodified BIRB796."}, "[4]": {"molecular_target": "T2, PKCalpha-NanoLuc (Homo sapiens, UniProt P17252)", "T2 construct": "expressed in transfected cells; host or cells: HEK293", "experiment": "Tracer BRET with PKCalpha-NanoLuc in MAPK panel (Example 12)", "format": "binding", "settings": "HEK293 cells, 2 uM tracer with or without 4 uM BIRB796, FIG. 13", "protocol": "as §2"}, "[5]": {"test_system": "panel of 11 kinases (N- and C-terminal NanoLuc fusions)", "experiment": "NanoLuc fusion protein array screen, cell-free TNT expression, BRET response ratio (Example 17)", "format": "binding", "settings": "cell-free TNT reactions diluted 1:100, tracer with or without excess free drug, 2 h room temperature, FIG. 19", "protocol": "Each TNT® reaction was diluted 1:100 in PBS and plated in replicates into wells of 96-well plates. […] For each TNT® reaction, 4 replicates with 2 uM BIRB TOM/4 replicates with 2 uM BIRB-TOM+4 uM BIRB796 (total of 2×96-well plates) and 4 replicas with 1 uM Dasatinib-TOM/4 replicates with 1 uM Dasatinib-TOM+5 uM Dasatinib (total of 2×96-well plates) were performed. The reactions were incubated with constant mixing for 2 h at room temperature. […] To determine response ratios, the BRET values with tracer alone were divided by the BRET values with tracer+unmodified."}, "[6]": {"molecular_target": "T3, NanoLuc-p38alpha (Homo sapiens, UniProt Q16539)", "T3 construct": "expressed in transfected cells; host or cells: HEK293", "T3 sequence (Q16539 whole entry)": "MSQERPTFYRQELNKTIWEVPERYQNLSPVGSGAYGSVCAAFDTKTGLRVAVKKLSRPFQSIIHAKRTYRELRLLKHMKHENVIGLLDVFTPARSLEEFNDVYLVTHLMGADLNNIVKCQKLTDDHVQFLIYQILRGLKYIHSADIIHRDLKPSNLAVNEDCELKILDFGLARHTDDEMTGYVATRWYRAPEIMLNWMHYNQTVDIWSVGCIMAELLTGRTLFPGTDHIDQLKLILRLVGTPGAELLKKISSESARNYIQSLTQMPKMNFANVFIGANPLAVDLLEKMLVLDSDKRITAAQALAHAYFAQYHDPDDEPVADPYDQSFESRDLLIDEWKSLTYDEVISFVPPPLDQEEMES", "experiment": "BRET tracer binding to NanoLuc-p38alpha in HEK293 cells (Example 10)", "settings": "serially-diluted tracer, 37° C. two hours, FIG. 11", "protocol": "as §1"}, "[7]": {"molecular_target": "T2, PKCalpha-NanoLuc", "experiment": "Tracer affinity BRET, PKCalpha-NanoLuc (Example 13)", "format": "binding", "settings": "HEK293 cells, serially-diluted tracer with or without 4 uM BIRB796, FIGS. 14 and 15", "protocol": "as §1"}, "[8]": {"molecular_target": "T4, HDAC10 (Homo sapiens, UniProt Q969S8)", "T4 construct": "expressed in transfected cells; host or cells: HeLa", "T4 sequence (Q969S8 1-669)": "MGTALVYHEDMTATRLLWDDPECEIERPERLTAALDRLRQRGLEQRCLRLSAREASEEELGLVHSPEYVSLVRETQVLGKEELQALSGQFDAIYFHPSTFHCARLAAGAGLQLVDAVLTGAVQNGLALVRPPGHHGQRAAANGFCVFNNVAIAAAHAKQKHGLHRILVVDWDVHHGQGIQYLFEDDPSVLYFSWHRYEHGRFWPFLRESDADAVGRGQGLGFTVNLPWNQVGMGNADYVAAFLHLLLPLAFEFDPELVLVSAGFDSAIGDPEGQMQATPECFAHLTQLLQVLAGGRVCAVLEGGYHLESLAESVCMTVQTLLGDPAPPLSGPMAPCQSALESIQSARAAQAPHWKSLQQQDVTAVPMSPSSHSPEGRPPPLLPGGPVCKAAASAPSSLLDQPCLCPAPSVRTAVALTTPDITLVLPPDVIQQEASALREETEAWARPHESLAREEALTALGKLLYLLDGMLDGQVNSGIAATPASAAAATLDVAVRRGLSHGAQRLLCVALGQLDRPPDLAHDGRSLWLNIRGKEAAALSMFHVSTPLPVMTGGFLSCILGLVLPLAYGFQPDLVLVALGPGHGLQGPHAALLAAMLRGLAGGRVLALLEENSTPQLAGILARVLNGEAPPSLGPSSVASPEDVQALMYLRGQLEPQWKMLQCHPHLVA", "experiment": "SAHA tracer BRET with HDAC10 NANOLUC fusion in HeLa cells (Example 23)", "format": "binding", "settings": "FIG. 30", "protocol": "(§3) HeLa cells were transfected with plasmid DNA encoding NANOLUC fusions with the entire family of non-sirtuin histone deacetylases (HDACs 1-11). […] Cells were incubated at 37° C. for two hours. […] BRET was then measured on a BMG Clariostar luminometer equipped with 450 nm bandpass and 610 nm longpass filters. […] To determine specific, background corrected BRET values, the nonspecific BRET values at each concentration of tracer were subtracted from BRET values with tracer alone."}, "[9]": {"molecular_target": "T1, NanoLuc-HDAC6", "experiment": "Intracellular BRET tracer binding to NanoLuc-HDAC6 (Example 1)", "settings": "HEK293 cells, compared to SAHA-TMR (PBI-4967), FIG. 2", "protocol": "HEK293 cells were transfected using FuGene HD (Promega Corp.) with plasmid DNA encoding a NanoLuc-HDAC6 fusion protein. NanoLuc-HDAC6 DNA was diluted 1:1000 with a promoterless carrier DNA (pGEM3Z) to yield a final concentration of 50 ng/well total DNA in 96-well plate format (at a seeding density of 20,000 cells/well). Twenty-four hours post-transfection, cells were then incubated with serially-diluted tracer in the presence or absence of a molar excess of unlabeled SAHA (as a specificity control). Following equilibration with the drug tracers, furimazine (a coelenterazine derivative substrate for NanoLuc; Promega Corp.) was added at a concentration of 20 uM, and BRET was quantified on a Varioskan luminometer. The specific BRET signal was calculated by subtracting the non-specific signal (in the presence of unlabeled SAHA) from the signal generated from the SAHA tracer alone."}, "[10]": {"test_system": "Class IIa HDACs", "experiment": "SAHA tracer BRET with Class IIa HDAC NANOLUC fusions in HeLa cells (Example 23)", "format": "binding", "settings": "FIG. 31", "protocol": "as §3"}, "[11]": {"molecular_target": "T5, HDAC6 (Homo sapiens, UniProt Q9UBN7)", "T5 construct": "expressed in transfected cells; host or cells: HeLa", "T5 sequence (Q9UBN7 with tags, fused parts or gaps)": "as the sequence (Q9UBN7 with tags, fused parts or gaps) above", "experiment": "SAHA tracer BRET with HDAC6 NANOLUC fusion in HeLa cells (Example 23)", "format": "binding", "settings": "FIG. 30", "protocol": "as §3"}, "[12]": {"molecular_target": "T6, HDAC8 (Homo sapiens, UniProt Q9BY41)", "T6 construct": "expressed in transfected cells; host or cells: HeLa", "T6 sequence (Q9BY41 1-377)": "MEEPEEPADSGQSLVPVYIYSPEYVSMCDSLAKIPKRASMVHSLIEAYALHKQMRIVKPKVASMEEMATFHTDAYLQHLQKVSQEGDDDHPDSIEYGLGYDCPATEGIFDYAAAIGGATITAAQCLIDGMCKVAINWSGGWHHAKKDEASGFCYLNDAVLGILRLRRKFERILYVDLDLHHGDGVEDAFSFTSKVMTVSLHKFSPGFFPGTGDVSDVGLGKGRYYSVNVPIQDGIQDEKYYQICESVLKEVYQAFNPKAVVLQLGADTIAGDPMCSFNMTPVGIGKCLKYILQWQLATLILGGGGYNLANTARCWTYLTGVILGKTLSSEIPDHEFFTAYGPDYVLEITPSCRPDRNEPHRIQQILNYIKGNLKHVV", "experiment": "SAHA tracer BRET with HDAC8 NANOLUC fusion in HeLa cells (Example 23)", "format": "binding", "settings": "FIG. 29", "protocol": "as §3"}, "[13]": {"molecular_target": "T7, HDAC3 (Homo sapiens, UniProt O15379)", "T7 construct": "expressed in transfected cells; host or cells: HeLa", "T7 sequence (O15379 whole entry, the tested form may be a part)": "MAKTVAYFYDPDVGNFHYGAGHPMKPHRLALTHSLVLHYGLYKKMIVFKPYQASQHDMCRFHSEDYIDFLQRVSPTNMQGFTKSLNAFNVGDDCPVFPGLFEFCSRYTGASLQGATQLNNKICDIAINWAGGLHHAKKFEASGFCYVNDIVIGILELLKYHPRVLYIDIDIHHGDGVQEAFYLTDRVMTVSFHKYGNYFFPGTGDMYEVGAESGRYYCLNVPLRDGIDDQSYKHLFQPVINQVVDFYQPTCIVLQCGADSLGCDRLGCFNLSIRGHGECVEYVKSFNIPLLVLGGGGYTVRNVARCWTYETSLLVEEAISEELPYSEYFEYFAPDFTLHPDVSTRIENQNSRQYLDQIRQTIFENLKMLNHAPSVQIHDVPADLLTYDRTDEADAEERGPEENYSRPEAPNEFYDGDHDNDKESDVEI", "experiment": "SAHA tracer BRET with HDAC3 NANOLUC fusion in HeLa cells (Example 23)", "format": "binding", "settings": "FIG. 29", "protocol": "as §3"}, "[14]": {"molecular_target": "T8, HDAC2 (Homo sapiens, UniProt Q92769)", "T8 construct": "expressed in transfected cells; host or cells: HeLa", "T8 sequence (Q92769 whole entry, the tested form may be a part)": "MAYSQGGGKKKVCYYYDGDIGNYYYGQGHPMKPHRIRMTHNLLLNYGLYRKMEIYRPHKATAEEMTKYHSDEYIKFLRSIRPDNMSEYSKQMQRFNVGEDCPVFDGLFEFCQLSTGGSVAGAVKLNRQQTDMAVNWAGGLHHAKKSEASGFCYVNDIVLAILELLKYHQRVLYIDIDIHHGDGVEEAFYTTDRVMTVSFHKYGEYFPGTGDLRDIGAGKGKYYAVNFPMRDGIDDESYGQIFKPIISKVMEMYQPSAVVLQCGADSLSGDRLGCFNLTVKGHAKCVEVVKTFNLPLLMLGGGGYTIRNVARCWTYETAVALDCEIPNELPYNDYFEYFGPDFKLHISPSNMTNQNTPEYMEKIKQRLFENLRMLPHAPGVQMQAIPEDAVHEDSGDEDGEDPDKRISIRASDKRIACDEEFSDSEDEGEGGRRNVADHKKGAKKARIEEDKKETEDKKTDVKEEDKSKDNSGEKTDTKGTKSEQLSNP", "experiment": "SAHA tracer BRET with HDAC2 NANOLUC fusion in HeLa cells (Example 23)", "format": "binding", "settings": "FIG. 29", "protocol": "as §3"}, "[15]": {"molecular_target": "T9, HDAC1 (Homo sapiens, UniProt Q13547)", "T9 construct": "expressed in transfected cells; host or cells: HeLa", "T9 sequence (Q13547 whole entry, species assumed, the tested form may be a part)": "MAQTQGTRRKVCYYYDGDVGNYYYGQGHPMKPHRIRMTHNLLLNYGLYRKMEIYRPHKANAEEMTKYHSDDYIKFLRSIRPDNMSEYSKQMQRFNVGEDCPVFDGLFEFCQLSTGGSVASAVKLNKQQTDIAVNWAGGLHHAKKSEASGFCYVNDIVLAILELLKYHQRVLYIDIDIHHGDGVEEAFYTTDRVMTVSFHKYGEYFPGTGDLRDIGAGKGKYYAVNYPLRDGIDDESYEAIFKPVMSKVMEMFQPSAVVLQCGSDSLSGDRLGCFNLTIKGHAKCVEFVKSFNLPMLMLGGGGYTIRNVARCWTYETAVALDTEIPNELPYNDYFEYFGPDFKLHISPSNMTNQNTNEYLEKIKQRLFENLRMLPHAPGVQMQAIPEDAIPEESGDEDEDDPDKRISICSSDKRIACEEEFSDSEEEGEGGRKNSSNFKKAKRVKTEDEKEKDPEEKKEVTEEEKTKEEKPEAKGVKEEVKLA", "experiment": "SAHA tracer BRET with HDAC1 NANOLUC fusion in HeLa cells (Example 23)", "format": "binding", "settings": "FIG. 29", "protocol": "as §3"}, "[16]": {"molecular_target": "T1, NanoLuc-HDAC6", "experiment": "Competitive displacement of SAHA-TOM tracer from NanoLuc-HDAC6, BRET (Example 15)", "format": "binding", "settings": "HEK293 cells, serially-diluted inhibitor with 1 uM SAHA-TOM (PBI-4968), two hours, FIG. 17"}}}
{"smiles": "COc1cc2c(cc1-c1c(C)noc1C)ncc1[nH]c(=O)n([C@H](C)c3ccccn3)c12", "note": "[IBET 151]", "values": [{"measurement": "effect on BRET signal (competitive binding)", "setting": "[1]", "value": "diminished in a dose-dependent manner"}]}
{"smiles": "CC(C)(C)c1cc(NC(=O)Nc2ccccc2)n(-c2cccc(CNC(=O)CN)c2)n1", "note": "[PBI-4838]", "values": [{"measurement": "specific BRET signal", "setting": "[2]", "value": "relatively little specific BRET signal"}, {"measurement": "selectivity of tracer (targets giving specific BRET)", "setting": "[3]", "value": "Jnk2, p38beta and p38alpha"}, {"measurement": "specific BRET signal", "setting": "[4]", "value": "relatively little specific BRET signal"}, {"measurement": "selectivity of tracer (hits in NanoLuc fusion array)", "setting": "[5]", "value": "JNk2, JNk3, MAPK14, MAPK11 and MAPK13"}, {"measurement": "EC50", "setting": "[6]", "value": 38, "unit": "nM"}, {"measurement": "specific BRET signal", "setting": "[7]", "value": "relatively little specific BRET signal"}]}
{"smiles": "O=C(CCCCCCC(=O)Nc1ccc(CNC(=O)c2ccc(C(=O)O)c(C3=c4cc5c6c(c4Oc4c3cc3c7c4CCCN7CCCC3)CCC[N+]=6CCCC5)c2)cc1)NO", "note": "[PBI-4968]", "values": [{"measurement": "BRET with tracer", "setting": "[8]", "value": "specific BRET"}, {"measurement": "EC50 value for binding within living cells", "setting": "[9]", "value": "left-shifted EC50 value"}, {"measurement": "specific BRET signal", "setting": "[9]", "value": "superior, specific BRET signal"}, {"measurement": "BRET with tracer", "setting": "[10]", "value": "do not generate significant BRET"}, {"measurement": "BRET with tracer", "setting": "[11]", "value": "specific BRET"}, {"measurement": "BRET with tracer", "setting": "[12]", "value": "specific BRET signals"}, {"measurement": "BRET with tracer", "setting": "[13]", "value": "specific BRET signals"}, {"measurement": "BRET with tracer", "setting": "[14]", "value": "specific BRET signals"}, {"measurement": "BRET with tracer", "setting": "[15]", "value": "specific BRET signals"}]}
{"smiles": "Cc1nc(Nc2ncc(C(=O)Nc3c(C)cccc3Cl)s2)cc(N2CCN(CCOC(=O)NCCCCCNC(=O)c3ccc(C(=O)O)c(C4=c5cc6c7c(c5Oc5c4cc4c8c5CCCN8CCCC4)CCC[N+]=7CCCC6)c3)CC2)n1", "note": "[PBI-5170]", "values": [{"measurement": "selectivity of tracer (hits in NanoLuc fusion array)", "setting": "[5]", "value": "ABL1, Src, LCK, MEK5, MAPK11 and MAPK14"}]}
{"smiles": "O=C(CCCCCCC(=O)Nc1ccccc1)NO", "note": "[SAHA, suberoylanilide hydroxamic acid]", "values": [{"measurement": "binding efficiency to HDAC6", "setting": "[16]", "value": "high binding efficiency"}]}
